The conditions of test [1]: in vivo; cited from earlier work.
The subject of test [2] is NMDA receptor containing the NR2B subunit. In words: [3H]MK-801 binding test in vivo. Set-up: species or system Sprague Dawley rats. The conditions noted are these: [3H]MK-801 binding inhibitory rate in rat hippocampus, vehicle control 100%, excess MK-801 maleate 0%. Here is the method: In order to confirm that compounds of the present disclosure exert functional antagonistic action on an NMDA receptor containing the NR2B subunit in vivo, a binding test was performed using tritium-labeled form of MK-801 ((5R,10S)-5-methyl-10,11-dihydro-5H-5,10-epiminodibenzo[a,d][7]annulene) ([3H]MK-801), which is a compound capable of binding to the opening site of the NMDA receptor.
The example compound (3 mg/kg/2 mL, 0.5% MC water) or vehicle (0.5% MC water 2 ml) was orally administered (p.o.) to Sprague Dawley rats (body weight 180-260 g). After a certain time (around after time-to maximum blood concentration), [3H]MK-801 (20 μCi/kg/mL, Muromachi Kikai) was intravenously administered. After 10 min, the rats were euthanized by decapitation, and subjected to craniotomy, and the hippocampus was collected. The collected hippocampus was homogenized in 30 volumes (30 mL per 1 g tissue) ice-cooled 20 mM HEPES (pH7.5, Hampton Research) using a homogenizer (T10 basic Ultra-Turrax) for 10 sec. […] The filter was washed four times with ice-cooled saline (5 mL, Otsuka Pharmaceutical), put into a scintillation vial, and then 10 mL of liquid scintillator A (FUJIFILM Wako Pure Chemical Corporation) was added thereto, and the residual radioactivity was counted using liquid scintillation counter (ALOKA LSC-6100).
Separately, the residual radioactivity in 100 μL of the homogenate before the filtration was counted in the same way. The value of [the residual radioactivity in the filter/the residual radioactivity in the 100 μL of the homogenate] was calculated as a [3H]MK-801 binding rate to the NMDA receptor expressing in each individual hippocampus tissue. […] The difference between the percentage of [^3H]MK-801 binding rate in the group orally administered with the example compound and that in the vehicle control group (100%) was analyzed as [^3H]MK-801 binding inhibitory rate by the example compound.

Test [3] addresses NMDA receptor composed of four subunits including two sets of heterodimers of NR1 and NR2B (GRIN1/GRIN2B) expressed in HEK 293 cells (Homo sapiens, UniProt Q13224). In words: NR2B Ca2+ influx assay. Type of test: cell-based. The conditions noted are these: HEK293, final concentration 10 μM; glutamic acid and glycine induced Ca2+ influx, HEK 293 cells expressing human GRIN1 and GRIN2B; read-out: % inhibited(10 μM). As for the experimental part: The HEK 293 cells that express GRIN1 and GRIN2B were purchased from ChanTest (human NMDA (NR1/NR2B) receptor-expressing, stable replicating cell line (HEK 293) catalog no. CT6121).
Intracellular calcium-ion (Ca^2+) influx caused by glycine and glutamic acid respectively binding to NR1 and NR2B was used as an index of NMDA receptor activation.
The HEK 293 cells expressing GRIN1 and GRIN2B were cultured in a cell culture flask in an incubator (37° C., in 5% CO2) using a DMEM/F-12 (Cosmo Bio, 10-092-CM) medium supplemented with 10% FBS (fetal bovine serum, AusGene), 100 units/mL penicillin, 100 μg/mL streptomycin, 500 μg/mL neomycin, 100 μg/mL Zeocin (registered trademark of Invitrogen), and 5 μg/mL blasticidin.
On the day before the assay, the cells were detached from the flask by trypsinization, suspended in a seeding medium (DMEM (Invitrogen, 31053) supplemented with 10% FBS, 100 units/mL penicillin, and 100 μg/mL streptomycin) so as to be 8×10^5 cells/mL, seeded at 25 μL per well in a 384-well plate (Falcon, 356663) so as to be 20,000 cells/well, and cultured overnight using the incubator. On the day of the assay, tetracycline (Wako Pure Chemical, 209-16561) was diluted with the seeding medium at 2 μg/mL, and added at 25 μL/well to the plate into which the cells were seeded, and this was cultured for 2 hours in the incubator. Afterward, the medium was removed and washed with an assay buffer (137 mM NaCl, 4 mM KCl, 1.8 mM CaCl2), 10 mM HEPES (pH 7.2), 10 mM glucose, 0.1% BSA) at 50 μL/well. Next, a loading buffer (buffer wherein 2.5 μM Fluo-4 AM, 2 mM amaranth, and 1 mM tartrazine are added to the assay buffer) was added at 25 μL/well, and this was incubated in the incubator for 30 minutes and for 15 minutes at room temperature. Solutions wherein the Example compounds were diluted with the above-mentioned assay buffer so as to be 30 μM (final concentration 10 μM) were added at 25 μL/well, and these were left standing for 15 minutes at room temperature. Using FDSS7000EX/μCELL (Hamamatsu Photonics), an assay buffer including 30 μM glutamic acid and 30 μM glycine was added at 25 μL/well, and a fluorescence signal of an Excitation wavelength of 480 nm and an Emission wavelength of 540 nm was measured every 3 seconds for 5 minutes. The inhibitory activity was calculated as a relative activity value (inhibitory rate) wherein relative to an integrated value of florescence values of each well, an integrated value of fluorescence values of a well into which an assay buffer without glutamic acid and glycine was defined as 100% inhibition.

For test [4] the following is noted: rodents; cited from earlier work.
The conditions of test [5]: intravenous single administration; cited from earlier work.
The conditions of test [6]: in vivo; cited from earlier work. The source holds these as a separate data set.
The conditions of test [7]: continuous intravenous administration; cited from earlier work.

The values below come from patent publication US12630509B2, “Heterocyclic NMDA antagonists” (TAKEDA PHARMACEUTICAL COMPANY LIMITED, priority 2019, dated 2026).

Chain of NMDA receptor composed of four subunits including two sets of heterodimers of NR1 and NR2B (GRIN1/GRIN2B) expressed in HEK 293 cells (Q13224 27-1484, other chains not shown): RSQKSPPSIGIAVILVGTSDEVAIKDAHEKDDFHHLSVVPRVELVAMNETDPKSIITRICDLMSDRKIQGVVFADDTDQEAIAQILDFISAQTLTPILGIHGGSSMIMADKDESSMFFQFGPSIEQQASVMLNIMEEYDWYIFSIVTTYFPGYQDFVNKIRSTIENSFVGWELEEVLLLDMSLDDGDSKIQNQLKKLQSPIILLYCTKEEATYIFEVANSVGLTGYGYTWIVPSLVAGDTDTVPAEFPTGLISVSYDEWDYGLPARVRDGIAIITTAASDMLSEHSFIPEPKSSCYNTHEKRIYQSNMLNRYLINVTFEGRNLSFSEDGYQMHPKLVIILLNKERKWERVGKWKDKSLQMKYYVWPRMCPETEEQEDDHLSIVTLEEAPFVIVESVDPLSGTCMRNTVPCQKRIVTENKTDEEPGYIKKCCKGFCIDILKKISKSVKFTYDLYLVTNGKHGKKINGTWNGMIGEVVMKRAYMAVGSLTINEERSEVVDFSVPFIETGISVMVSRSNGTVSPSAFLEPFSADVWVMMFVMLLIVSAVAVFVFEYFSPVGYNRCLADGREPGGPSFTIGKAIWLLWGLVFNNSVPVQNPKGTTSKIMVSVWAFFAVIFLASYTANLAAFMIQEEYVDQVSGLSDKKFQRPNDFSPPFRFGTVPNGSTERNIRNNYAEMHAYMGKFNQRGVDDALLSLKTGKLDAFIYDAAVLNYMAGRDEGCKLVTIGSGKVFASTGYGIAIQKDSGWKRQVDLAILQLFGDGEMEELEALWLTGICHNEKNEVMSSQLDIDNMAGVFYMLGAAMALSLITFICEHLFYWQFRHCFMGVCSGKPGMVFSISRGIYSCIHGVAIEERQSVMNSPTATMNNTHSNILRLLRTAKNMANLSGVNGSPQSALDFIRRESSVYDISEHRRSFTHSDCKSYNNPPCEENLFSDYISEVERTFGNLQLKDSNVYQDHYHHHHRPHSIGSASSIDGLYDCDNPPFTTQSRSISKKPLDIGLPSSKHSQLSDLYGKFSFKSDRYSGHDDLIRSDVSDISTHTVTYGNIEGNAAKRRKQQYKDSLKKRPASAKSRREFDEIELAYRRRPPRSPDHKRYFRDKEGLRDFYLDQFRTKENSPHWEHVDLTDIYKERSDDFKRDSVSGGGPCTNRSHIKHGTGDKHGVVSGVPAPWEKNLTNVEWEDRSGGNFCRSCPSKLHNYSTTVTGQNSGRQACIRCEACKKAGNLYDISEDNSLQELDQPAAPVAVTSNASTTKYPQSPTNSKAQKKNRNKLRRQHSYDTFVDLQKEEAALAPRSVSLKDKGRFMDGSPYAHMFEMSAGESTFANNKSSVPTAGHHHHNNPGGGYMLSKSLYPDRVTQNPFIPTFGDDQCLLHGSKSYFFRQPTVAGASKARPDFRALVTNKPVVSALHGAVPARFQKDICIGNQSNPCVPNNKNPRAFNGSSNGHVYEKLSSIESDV

For `CC(C(O)c1ccc(O)cc1)N1CCC(Cc2ccccc2)CC1` (stereo not drawn) [Ifenprodil], in test [1], the pain threshold value result was “increased”.

Regarding `C[C@H]1CCC(=O)N1Cc1cnc(Oc2ccc(F)cc2F)nc1` [Example 45, (5S)-1-{[2-(2,4-difluorophenoxy)pyrimidine-5-yl]methyl}-5-methylpyrrolidine-2-one], the “Inhibitory Rate (3 mg/kg, p.o.)” value in test [2] amounted to 13%. Besides, the inhibition at 10 µM in test [3] was determined as 96%.

For the molecule `C[C@H]1[C@@H](O)CC(=O)N1Cc1ccc(Oc2ccc(C(F)F)cc2F)nc1` [Example 38, (4S,5S)-1-({6-[4-(difluoromethyl)-2-fluorophenoxy]pyridin-3-yl}methyl)-4-hydroxy-5-methylpyrrolidin-2-one], the “Inhibitory Rate (3 mg/kg, p.o.)” value in test [2] was 22%. For the same molecule, the inhibition at 10 µM in test [3] stood at 95%.

With Ro25-6981, the “number of occurrences and depth of cortical spreading depression” value in test [4] was “suppress the number of occurrences of and the depth of cortical spreading depression”.

`CNC1(c2ccccc2Cl)CCCCC1=O` (stereo not drawn) [ketamine]: the “depression symptoms associated with major depression and bipolar disorder” value in test [5] was “rapidly and continuously improves depression symptoms”.

With `CC12CC3CC(C)(C1)CC(N)(C3)C2` [memantine], in test [6], the “peripheral symptoms of dementia” value is “partially ameliorated”.

`C[C@H]1COC(=O)N1Cc1cnc(Oc2ccc(Cl)cc2F)nc1` [Example 49, (4S)-3-{[2-(4-chloro-2-fluorophenoxy)pyrimidin-5-yl]methyl}-4-methyl-1,3-oxazolidin-2-one]: in test [2], the “Inhibitory Rate (3 mg/kg, p.o.)” value was found to be 19%. Besides, in test [3], the inhibition at 10 µM worked out at 97%.

For the molecule `Cc1ccc(Oc2ncc(CN3C(=O)OC[C@@H]3C)cn2)c(F)c1` [Example 23, (4S)-3-{[2-(2-fluoro-4-methylphenoxy)pyrimidin-5-yl]methyl}-4-methyl-1,3-oxazolidin-2-one], the inhibition at 10 µM in test [3] worked out at 94%.

For the molecule `C[C@H]1[C@@H](O)CC(=O)N1Cc1ccc(Oc2ccc(C(F)(F)F)cc2F)nc1` [Example 41, (4S,5S)-1-({6-[2-fluoro-4-(trifluoromethyl)phenoxy]pyridin-3-yl}methyl)-4-hydroxy-5-methylpyrrolidin-2-one], in test [3], the inhibition at 10 µM turned out to be 95%.

On to `Cc1ccc(Oc2cnc(CN3C(=O)C[C@H](O)[C@@H]3C)cn2)cc1` [Example 19, (4S,5S)-4-hydroxy-5-methyl-1-{[5-(4-methylphenoxy)pyrazin-2-yl]methyl}pyrrolidin-2-one], for which, in test [3], the inhibition at 10 µM was 82%.

For `Cc1cc(F)c(Oc2ncc(CN3C(=O)OC[C@@H]3C)cn2)c(F)c1` [Example 32, (4S)-3-{[2-(2,6-difluoro-4-methylphenoxy)pyrimidin-5-yl]methyl}-4-methyl-1,3-oxazolidin-2-one], the inhibition at 10 µM in test [3] came to 92%.

As to `Cc1cc(F)c(Oc2ccc(CN3C(=O)C[C@H](O)[C@@H]3C)cn2)c(F)c1` [Example 31, (4S,5S)-1{[-6-(2,6-difluoro-4-methylphenoxy)pyridin-3-yl]methyl}4-hydroxy-5-methylpyrrolidin-2-one], the inhibition at 10 µM in test [3] amounted to 97%.

Turning to `Cc1ccc(Oc2ccc(CN3C(=O)C[C@@H](O)[C@H]3C)cc2)cc1` [Example 12, (4R,5R)-4-hydroxy-5-methyl-1-{[4-(4-methylphenoxy)pheny]methyl}pyrrolidin-2-one], the inhibition at 10 µM in test [3] came out at 93%.

With `C[C@@H]([C@@H](O)c1ccc(O)cc1)N1CCC(O)(c2ccccc2)CC1` [CP-101,606], the “number of occurrences and depth of cortical spreading depression” value in test [4] was “suppress the number of occurrences of and the depth of cortical spreading depression”. Moreover, the treatment-resistant depression symptoms entry in test [7] was “significantly improved”.

For the molecule `C[C@H]1CCC(=O)N1Cc1cnc(Oc2ccc(C(F)F)cc2F)nc1` [Example 42, (5S)-1-({2-[4-(difluoromethyl)-2-fluorophenoxy]pyrimidin-5-yl}methyl)-5-methylpyrrolidin-2-one], in test [3], the inhibition at 10 µM amounted to 97%.

For `CC[C@H]1[C@@H](O)CC(=O)N1Cc1ccc(Oc2ccc(C)cc2)cc1` [Example 7, (4S,5S)-5-ethyl-4-hydroxy-1-{[4-(4-methylphenoxy)phenyl]methyl}pyrrolidin-2-one], the inhibition at 10 µM in test [3] was 98%.

Take `Cc1ccc(Oc2ncc(CN3C(=O)CC[C@@H]3C)cn2)cc1` [Example 22, (5S)-5-methyl-1-{[2-(4-methylphenoxy)pyrimidin-5-yl]methyl}pyrrolidin-2-one]: the inhibition at 10 µM in test [3] is 95%.

Turning to `Cc1ccc(Oc2cnc(CN3C(=O)CCC3C)nc2)cc1` (stereo not drawn) [Example 8, 5-methyl-1{[5-(4-methylphenoxy)pyrimidin-2-yl]methyl}pyrrolidin-2-one], in test [3], the inhibition at 10 µM amounted to 53%.

Take `C[C@H]1[C@@H](O)C(F)(F)C(=O)N1Cc1ccc(Oc2ccc(F)cc2F)nc1` [Example 36, (4R,5S)-1-{[6-(2,4-difluorophenoxy)pyridin-3-yl]methyl}-3,3-difluoro-4-hydroxy-5-methylpyrrolidin-2-one]: the inhibition at 10 µM in test [3] was 97%.

Take `Cc1ccc(Oc2ncc(CN3C(=O)CC[C@@H]3C)cn2)c(F)c1` [Example 44, (5S)-1-{[2-(2-fluoro-4-methylphenoxy)pyrimidin-5-yl]methyl}-5-methylpyrrolidin-2-one]: the inhibition at 10 µM in test [3] came out at 97%.

As to `C[C@H]1[C@@H](O)CC(=O)N1Cc1ccc(Oc2c(F)cc(F)cc2F)nc1` [Example 27, (4S,5S)-4-hydroxy-5-methyl-1-{[6-(2,4,6-trifluorophenoxy)pyridin-3-yl]methyl}pyrrolidin-2-one], the inhibition at 10 µM in test [3] amounted to 97%.

For `C[C@H]1COC(=O)N1Cc1ccc(Oc2c(F)cc(F)cc2F)nc1` [Example 28, (4S)-4-methyl-3-{[6-(2,4,6-trifluorophenoxy)pyridin-3-yl]methyl}-1,3-oxazolidin-2-one], in test [3], the inhibition at 10 µM was determined as 96%.

Consider `C[C@H]1CCC(=O)N1Cc1cnc(Oc2ccc(Cl)cc2F)nc1` [Example 46, (5S)-1-{[2-(4-chloro-2-fluorophenoxy)pyrimidin-5-yl]methyl}-5-methylpyrrolidin-2-one], for which the inhibition at 10 µM in test [3] came out at 97%.
